{"source": "patent US20110183904A1", "about": "“METHODS AND COMPOSITIONS FOR ALTERING BEHAVIOR ASSOCIATED WITH AUTISM SPECTRUM DISORDER” (The Children's Mercy Hospital, priority 2008, published 2011)", "key": {"[1]": {"tested_on": "Gαs mRNA and Gαq mRNA in PBMCs", "assay": "G-protein mRNA (Gαs and Gαq) in PBMCs exposed to oxytocin", "type": "cell-based, human", "experimental": "(§1) Both Gαs and Gαq mRNA were measured after PBMCs were incubated with vehicle (untreated condition) and after co-culture with hormone. For some subjects, the PBMC quantity yielded insufficient mRNA for PCR analysis. Gαs PCR was completed on 10 ASD girls, 9 control girls, 10 ASD boys, and 9 control boys. Gαq PCR was completed on 10 ASD girls, 8 control girls, 10 ASD boys, and 9 control boys.\n(§2) Samples were taken from the patients, as described in Example 1, and mRNA was isolated from cells exposed to oxytocin and analyzed for amount of mRNA expressing Gαs and Gαq.\nPBMC isolation, hormone treatment and cell culture. PBMCs were isolated from heparinized blood using Histopaque 1077 (Sigma-Aldrich, St. Louis, Mo.). Briefly, 5 ml of blood was diluted 1:1 in PBS and carefully layered onto 3 ml of Histopaque 1077 in a 50 ml conical centrifuge tube. Tubes were centrifuged at 400 g for 30 min at RT. The buffy coat was removed from the tube and washed three times in complete RPMI without phenol red. Cell counts and viability were determined using Trypan blue. Cell viability was >95%. Resultant PBMC's were suspended in complete RPMI with 10% charcoal stripped, dilapidated fetal calf serum (FCS) (Invitrogen, Carlsbad, Calif.) and added in 1 ml aliquots to 12 well plate with vehicle and oxytocin (10 ^−7M, 10 ^−8M, and 10^−9M) in RPMI+10% charcoal stripped, dilapidated FCS. Cells were incubated overnight (18-24 hr) before wells were harvested and rinsed. Cell suspensions were centrifuged at 500 g for 10 min at RT, and supernatant was aspirated. Buffer RLT Plus from the RNeasy Mini Plus Kit (QIAgen, Valencia, Calif.) was added to the cell pellets before vortexing to lyse cells. Samples were stored at −80° C. before RNA purification and isolation.\nRNA isolation and quantitation. Samples were thawed, vortexed, and placed in QIAshredder columns. Columns were centrifuged for 2 min at 15000 g. The homogenized lysate was transferred to a gDNA Eliminator spin column and centrifuged for 30 sec at 9000 g. Equal volumes of 70% ethanol were added to the eluent. The mixture was transferred to RNeasy spin columns and centrifuged for 15 sec at 9000 g. Columns were washed with Buffer RW1 and the Buffer RPE, centrifuging for 15 sec at 9000 g, each time discarding the eluent. Buffer RPE was again added and columns centrifuged for 2 min at 9000 g to dry the column. Columns were then centrifuged for 1 min at 15000 g. RNA was eluted with the addition of Nuclease-free water and spun for 1 min at 9000 g. RNA was examined by spectrophotometry and quantitated using the Ribogreen assay (Invitrogen, Carlsbad, Calif.). Samples were diluted 1:200. Standards of 0, 20, 100, 500, and 1000 ng/ml were made from E. coli ribosomal RNA in TE buffer. Ribogreen reagent (1:200) was added to samples and standards, and samples were read on a Bio-Tek FLx800 fluorescent plate reader. RNA was diluted in nuclease-free water to a final concentration of 150 ng/ml cDNA.\ncDNA construction and one-step real-time RT-PCR. Reverse transcription was performed using the SuperScript II Reverse Transcription Kit (Invitrogen, Carlsbad, Calif.). First, any residual DNA was digested away with DNase I for 15 min, with DNase activity subsequently quenched with 25 mM EDTA at 65° C. for 15 min. 10 mM dNTP and 0.5 ug/ml oligo (dT) were added to DNase-treated samples at 65° C. for 5 min. […]"}, "[2]": {"tested_on": "Gαs in murine spleen cells", "assay": "Gαs expression in murine spleen cells exposed to OT (previous findings in this lab)", "type": "cell-based", "settings": "both sexes"}, "[3]": {"tested_on": "Gαq mRNA in PBMCs", "assay": "Gαq mRNA in PBMCs co-cultured with OT", "type": "cell-based, human", "experimental": "as §1, §2\n(§3) PBMC isolation, hormone treatment and cell culture. PBMCs were isolated from heparinized blood using Histopaque 1077 (Sigma-Aldrich, St. Louis, Mo.). Briefly, 5 ml of blood was diluted 1:1 in PBS and carefully layered onto 3 ml of Histopaque 1077 in a 50 ml conical centrifuge tube. Tubes were centrifuged at 400 g for 30 min at RT. The buffy coat was removed from the tube and washed three times in complete RPMI without phenol red. Cell counts and viability were determined using Trypan blue. Cell viability was >95%. […]\n(§4) RNA isolation and quantitation. […] RNA was examined by spectrophotometry and quantitated using the Ribogreen assay (Invitrogen, Carlsbad, Calif.). […] Ribogreen reagent (1:200) was added to samples and standards, and samples were read on a Bio-Tek FLx800 fluorescent plate reader. […]"}, "[4]": {"tested_on": "adults with ASD", "settings": "cited from earlier work"}, "[5]": {"tested_on": "Gαs mRNA in PBMCs", "assay": "Gαs mRNA in PBMCs co-cultured with OT", "type": "cell-based, human", "experimental": "as §1, §2, §3, §4"}, "[6]": {"tested_on": "Gαs and Gαq protein in PBMCs", "assay": "G-protein expression (Gαs and Gαq) in PBMCs exposed to oxytocin (immunoblot)", "type": "cell-based, human", "experimental": "Membrane preparation for membrane-associated proteins. For protein studies, PBMC's were manipulated at 4° C., as previously described in Example 4. PBMC's were individually homogenized (1:30, wt/vol) in ice-cold 0.25 M sucrose and 50 mM Tris-HCL, (pH 7.6) in a Dounce homogenizer, centrifuged twice at 800×g for 5 min before centrifugation of the supernatants at 30,000×g for 60 min. The pellet was resuspended in assay buffer and used directly in the binding assay. Protein concentration was determined by BCA protein assay kit (Pierce, Rockford, Ill.) using bovine serum albumin (BSA) as a standard.\nImmunoblot analysis for membrane-associated proteins. Total membrane proteins were prepared as for receptor assays above. Samples were electrophoresed in 12% Tris-HCl resolving gels and transferred to 0.45 μm nitrocellulose membranes (Bio-Rad, Hercules, Calif.) by electroblotting. […] After three washes in TBST, membranes were incubated for 1 h in TBST and 1% non fat dry milk with horseradish peroxidase conjugated 2° antibodies (Jackson Immunoresearch, West Grove, Pa.). Bands were visualized by exposure of the membranes to autoradiographic film (MidSci, St. Louis, Mo.). The membranes were then stripped with Restore™ Western Blot Stripping Buffer (Pierce, Rockford Ill.) for 30 min at 37° C. and reprobed for actin protein as an internal control. The bands were quantified using a densitometer (GE Healthcare, Piscataway, N.J.).\nSpecific G protein antibodies. Specific Gαs and Gαq/11 antibodies made in rabbit without cross reactivity to other G proteins were used at a 1:500 dilution and originated from Santa Cruz Biotechnology (Santa Cruz, Calif.)."}, "[7]": {"tested_on": "male university students", "settings": "intra-nasally; cited from earlier work"}, "[8]": {"settings": "children with ASD versus controls"}}, "note": "“Also recorded” adds a separate entry of the source.", "data": [{"smiles": "CC[C@H](C)[C@@H]1NC(=O)[C@H](Cc2ccc(O)cc2)NC(=O)[C@@H](N)CSSC[C@@H](C(=O)N2CCC[C@H]2C(=O)N[C@@H](CC(C)C)C(=O)NCC(N)=O)NC(=O)[C@H](CC(N)=O)NC(=O)[C@H](CCC(N)=O)NC1=O", "note": "[OT, Oxytocin]", "values": [{"measurement": "mRNA pattern after exposure to oxytocin", "setting": "[1]; autistic males, compared with control females before exposure", "value": "more feminine pattern"}, {"measurement": "mRNA levels after exposure to oxytocin", "setting": "[1]; children with autism", "value": "not seen"}, {"measurement": "mRNA levels after exposure to oxytocin", "setting": "[1]; females with autism", "value": "upward trend"}, {"measurement": "mRNA levels after exposure to oxytocin", "setting": "[1]; males with autism", "value": "not observed"}, {"measurement": "mRNA levels after exposure to oxytocin", "setting": "[1]; non-autistic patients", "value": "went up"}, {"measurement": "Gαs expression with exposure to OT", "setting": "[2]", "value": "c. Previous findings in this lab had found sex differences in Gαs in murine spleen cells as well as induction of Gαs expression in both sexes with exposure to OT,"}, {"measurement": "difference in Gαq mRNA expression between ASD and control PBMCs upon exposure to OT", "setting": "[3]; [8]", "value": "no longer significant"}, {"measurement": "sex differences in Gαq mRNA expression with OT", "setting": "[3]; girls versus boys", "value": "not augmented"}, {"measurement": "affective speech comprehension", "setting": "[4]; OT infusion", "value": "improved"}, {"measurement": "severity and number of different types of repetitive behaviors", "setting": "[4]; intravenous OT infusion", "value": "decreased"}, {"measurement": "difference in Gαs mRNA expression between ASD and control PBMCs upon exposure to OT", "setting": "[5]; [8]", "value": "no longer observed; also recorded: did not have the significantly increased Gαs mRNA"}, {"measurement": "sex differences in Gαs expression with OT exposure", "setting": "[5]; girls versus boys, any group", "value": "not augmented"}, {"measurement": "protein expression after exposure to oxytocin", "setting": "[6]; children with autism", "value": "not seen"}, {"measurement": "protein expression after exposure to oxytocin", "setting": "[6]; females with autism", "value": "upward trend"}, {"measurement": "protein expression after exposure to oxytocin", "setting": "[6]; males with autism", "value": "not observed"}, {"measurement": "protein expression after exposure to oxytocin", "setting": "[6]; non-autistic patients", "value": "went up"}, {"measurement": "trust and prosocial behavior", "setting": "[7]", "value": "might increase trust and prosocial behavior"}]}]}
